According to patent US11427549B2, “Pyrimidinyloxy benzo-fused compounds as herbicides” (FMC Corporation, priority 2017, dated 2022):

Assays:
[1] = tested on: barnyardgrass (Echinochloa crus-galli); assay: Test B flooded paddy test, barnyardgrass; conditions: Echinochloa crus-galli, read-out: Plant response rating, Barnyardgrass (0 to 100 scale, 0 is no effect, 100 is complete control)
[2] = tested on: wheat (Triticum aestivum); assay: Test A postemergence, wheat; assay type: in vivo; conditions: Triticum aestivum, post-emergence, 240 h, 0 to 100 scale (0 no effect, 100 complete control), read-out: Plant response rating, Wheat; for plant injury at 125 g/ha: 125 g ai/ha
rice (Oryza sativa) = assay: Test B flooded paddy test, rice; conditions: Oryza sativa, read-out: Plant response rating, Rice (0 to 100 scale, 0 is no effect, 100 is complete control)
[3] = tested on: blackgrass (Alopecurus myosuroides); assay: Test A postemergence, blackgrass; assay type: in vivo; conditions: Alopecurus myosuroides, post-emergence, 240 h, 0 to 100 scale (0 no effect, 100 complete control), read-out: Plant response rating, Blackgrass; for pest or weed control at 125 g/ha: 125 g ai/ha
[4] = tested on: barnyardgrass (Echinochloa crus-galli); assay: Test A preemergence, barnyardgrass; assay type: in vivo; conditions: Echinochloa crus-galli, pre-emergence, 240 h, 0 to 100 scale (0 no effect, 100 complete control), read-out: Plant response rating, Barnyardgrass; for pest or weed control at 125 g/ha: 125 g ai/ha
[5] = tested on: pigweed (Amaranthus retroflexus); assay: Test A preemergence, pigweed; assay type: in vivo; conditions: Amaranthus retroflexus, pre-emergence, 240 h, 0 to 100 scale (0 no effect, 100 complete control), read-out: Plant response rating, Pigweed; for pest or weed control at 125 g/ha: 125 g ai/ha
kochia (Kochia scoparia) [6] = assay: Test A postemergence, kochia; assay type: in vivo; conditions: Bassia scoparia, post-emergence, 240 h, 0 to 100 scale (0 no effect, 100 complete control), read-out: Plant response rating, Kochia; for pest or weed control at 125 g/ha: 125 g ai/ha
[7] = tested on: pigweed (Amaranthus retroflexus); assay: Test A postemergence, pigweed; assay type: in vivo; conditions: Amaranthus retroflexus, post-emergence, 240 h, 0 to 100 scale (0 no effect, 100 complete control), read-out: Plant response rating, Pigweed; for pest or weed control at 125 g/ha: 125 g ai/ha
[8] = tested on: ducksalad (Heteranthera limosa); assay: Test B flooded paddy test, ducksalad; conditions: Heteranthera limosa, read-out: Plant response rating, Ducksalad (0 to 100 scale, 0 is no effect, 100 is complete control)
[9] = tested on: ragweed (common ragweed, Ambrosia elatior); assay: Test A preemergence, ragweed; assay type: in vivo; conditions: Ambrosia artemisiifolia, pre-emergence, 240 h, 0 to 100 scale (0 no effect, 100 complete control), read-out: Plant response rating, Ragweed; for pest or weed control at 125 g/ha: 125 g ai/ha
[10] = tested on: ryegrass, Italian (Italian ryegrass, Lolium multiflorum); assay: Test A postemergence, ryegrass, Italian; assay type: in vivo; conditions: Lolium multiflorum, post-emergence, 240 h, 0 to 100 scale (0 no effect, 100 complete control), read-out: Plant response rating, Ryegrass, Italian; for pest or weed control at 125 g/ha: 125 g ai/ha
[11] = tested on: ragweed (common ragweed, Ambrosia elatior); assay: Test A postemergence, ragweed; assay type: in vivo; conditions: Ambrosia artemisiifolia, post-emergence, 240 h, 0 to 100 scale (0 no effect, 100 complete control), read-out: Plant response rating, Ragweed; for pest or weed control at 125 g/ha: 125 g ai/ha
[12] = tested on: barnyardgrass (Echinochloa crus-galli); assay: Test A postemergence, barnyardgrass; assay type: in vivo; conditions: Echinochloa crus-galli, post-emergence, 240 h, 0 to 100 scale (0 no effect, 100 complete control), read-out: Plant response rating, Barnyardgrass; for pest or weed control at 125 g/ha: 125 g ai/ha
corn (Zea mays) = assay: Test A postemergence, corn; assay type: in vivo; conditions: Zea mays, post-emergence, 240 h, 0 to 100 scale (0 no effect, 100 complete control); for Corn plant response rating (crop injury, 0 = no effect, 100 = complete kill) at 125 g/ha: 125 g ai/ha
[13] = tested on: galium (catchweed bedstraw, Galium aparine); assay: Test A postemergence, galium; assay type: in vivo; conditions: Galium, post-emergence, 240 h, 0 to 100 scale (0 no effect, 100 complete control), read-out: Plant response rating, Galium; for pest or weed control at 125 g/ha: 125 g ai/ha
kochia (Kochia scoparia) [14] = assay: Test A preemergence, kochia; assay type: in vivo; conditions: Bassia scoparia, pre-emergence, 240 h, 0 to 100 scale (0 no effect, 100 complete control), read-out: Plant response rating, Kochia; for pest or weed control at 125 g/ha: 125 g ai/ha
[15] = tested on: ryegrass, Italian (Italian ryegrass, Lolium multiflorum); assay: Test A preemergence, ryegrass, Italian; assay type: in vivo; conditions: Lolium multiflorum, pre-emergence, 240 h, 0 to 100 scale (0 no effect, 100 complete control), read-out: Plant response rating, Ryegrass, Italian; for pest or weed control at 125 g/ha: 125 g ai/ha

| Structure (SMILES) | pest or weed control at 250 g/ha [1] [%] | plant injury at 125 g/ha [2] [%] | plant injury at 250 g/ha (rice (Oryza sativa)) [%] | pest or weed control at 125 g/ha [3] [%] | pest or weed control at 125 g/ha [4] [%] | pest or weed control at 125 g/ha [5] [%] | pest or weed control at 125 g/ha (kochia (Kochia scoparia) [6]) [%] | pest or weed control at 125 g/ha [7] [%] | pest or weed control at 250 g/ha [8] [%] | pest or weed control at 125 g/ha [9] [%] | pest or weed control at 125 g/ha [10] [%] | pest or weed control at 125 g/ha [11] [%] | pest or weed control at 125 g/ha [12] [%] | Corn plant response rating (crop injury, 0 = no effect, 100 = complete kill) at 125 g/ha (corn (Zea mays)) [%] | pest or weed control at 125 g/ha [13] [%] | pest or weed control at 125 g/ha (kochia (Kochia scoparia) [14]) [%] | pest or weed control at 125 g/ha [15] [%] | also measured |
| --- | --- | --- | --- | --- | --- | --- | --- | --- | --- | --- | --- | --- | --- | --- | --- | --- | --- | --- |
| O=C1NC(CCCC(F)(F)F)c2c(Oc3ncc(Cl)cn3)cccc21 (centres unmarked) [Compound 13, 4-[(5-Chloro-2-pyrimidinyl)oxy]-2,3-dihydro-3-(4,4,4-trifluorobutyl)-1H-isoindol-1-one] | 0 | 0 | 0 | 0 | 0 | 0 | 0 | 10 | 0 | 0 | 0 | 0 | 0 | 0 | 0 | 0 | 0 | plant injury at 31 g/ha ([2]; 31 g ai/ha): 0%; pest or weed control at 31 g/ha ([3]; 31 g ai/ha): 0%; pest or weed control at 31 g/ha ([4]; 31 g ai/ha): 0%; pest or weed control at 31 g/ha ([5]; 31 g ai/ha): 0%; pest or weed control at 31 g/ha (kochia (Kochia scoparia) [6]; 31 g ai/ha): 0%; pest or weed control at 31 g/ha ([7]; 31 g ai/ha): 0%; pest or weed control at 31 g/ha ([9]; 31 g ai/ha): 0%; pest or weed control at 31 g/ha ([10]; 31 g ai/ha): 0%; pest or weed control at 31 g/ha ([11]; 31 g ai/ha): 0%; pest or weed control at 31 g/ha ([12]; 31 g ai/ha): 0%; Corn plant response rating (crop injury, 0 = no effect, 100 = complete kill) at 31 g/ha (corn (Zea mays); 31 g ai/ha): 0%; pest or weed control at 31 g/ha ([13]; 31 g ai/ha): 0%; pest or weed control at 31 g/ha (kochia (Kochia scoparia) [14]; 31 g ai/ha): 0%; pest or weed control at 31 g/ha ([15]; 31 g ai/ha): 0% |
| OC1(CCC(F)(F)F)CCc2cccc(Oc3ncc(Cl)cn3)c21 (centres unmarked) [Compound 14, 7-[(5-Chloro-2-pyrimidinyl)oxy]-2,3-dihydro-1-(3,3,3-trifluoropropyl)-1H-inden-1-ol] | 0 | 30 | 0 | 40 | 20 | 100 | 80 | 50 | 40 | 40 | 20 | 70 | 30 | 10 | 50 | 50 | 10 | plant injury at 500 g/ha ([2]; 500 g ai/ha): 60%; pest or weed control at 500 g/ha ([3]; 500 g ai/ha): 90%; pest or weed control at 500 g/ha ([4]; 500 g ai/ha): 90%; pest or weed control at 500 g/ha ([5]; 500 g ai/ha): 100%; pest or weed control at 500 g/ha (kochia (Kochia scoparia) [6]; 500 g ai/ha): 80%; pest or weed control at 500 g/ha ([7]; 500 g ai/ha): 100%; pest or weed control at 500 g/ha ([9]; 500 g ai/ha): 70%; pest or weed control at 500 g/ha ([10]; 500 g ai/ha): 90%; pest or weed control at 500 g/ha ([11]; 500 g ai/ha): 90%; pest or weed control at 500 g/ha ([12]; 500 g ai/ha): 80%; Corn plant response rating (crop injury, 0 = no effect, 100 = complete kill) at 500 g/ha (corn (Zea mays); 500 g ai/ha): 40%; pest or weed control at 500 g/ha ([13]; 500 g ai/ha): 90%; pest or weed control at 500 g/ha (kochia (Kochia scoparia) [14]; 500 g ai/ha): 100%; pest or weed control at 500 g/ha ([15]; 500 g ai/ha): 60% |
